Assay results published in patent publication US10160747B2, “Compounds and methods for kinase modulation, and indications therefor” (Plexxikon Inc., priority 2016, dated 2018).

Experiments:
[1] = system: MOLM-14 F691L (endogenous FLT3 ITD and transfected FLT3 F691L); assay: MOLM-14 F691L cell proliferation assay (CellTiter-Glo); type: cell-based; settings: Homo sapiens, MOLM-14, 72 h; 3 d growth, GMean
How it was run: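 MOLM-14 cells (FLT3 ITD) carrying D835Y or F691L, 1×10^4 cells/well, eight 1:3 dilutions from 1 μM final, 0.2% DMSO, 3 days at 37 °C, 5% CO2. Viability by CellTiter-Glo luminescence (ATP content); IC50 from concentration-response.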

FLT3-D835Y = target: T1, FLT3-D835Y (Homo sapiens, UniProt P36888, D835Y); assay: FLT3-D835Y recombinant enzyme kinase assay (AlphaScreen); type: biochemical; settings: 8 pt, GMean
T1 construct: purchased Invitrogen PV3967
T1 sequence (P36888 27-993 D835Y): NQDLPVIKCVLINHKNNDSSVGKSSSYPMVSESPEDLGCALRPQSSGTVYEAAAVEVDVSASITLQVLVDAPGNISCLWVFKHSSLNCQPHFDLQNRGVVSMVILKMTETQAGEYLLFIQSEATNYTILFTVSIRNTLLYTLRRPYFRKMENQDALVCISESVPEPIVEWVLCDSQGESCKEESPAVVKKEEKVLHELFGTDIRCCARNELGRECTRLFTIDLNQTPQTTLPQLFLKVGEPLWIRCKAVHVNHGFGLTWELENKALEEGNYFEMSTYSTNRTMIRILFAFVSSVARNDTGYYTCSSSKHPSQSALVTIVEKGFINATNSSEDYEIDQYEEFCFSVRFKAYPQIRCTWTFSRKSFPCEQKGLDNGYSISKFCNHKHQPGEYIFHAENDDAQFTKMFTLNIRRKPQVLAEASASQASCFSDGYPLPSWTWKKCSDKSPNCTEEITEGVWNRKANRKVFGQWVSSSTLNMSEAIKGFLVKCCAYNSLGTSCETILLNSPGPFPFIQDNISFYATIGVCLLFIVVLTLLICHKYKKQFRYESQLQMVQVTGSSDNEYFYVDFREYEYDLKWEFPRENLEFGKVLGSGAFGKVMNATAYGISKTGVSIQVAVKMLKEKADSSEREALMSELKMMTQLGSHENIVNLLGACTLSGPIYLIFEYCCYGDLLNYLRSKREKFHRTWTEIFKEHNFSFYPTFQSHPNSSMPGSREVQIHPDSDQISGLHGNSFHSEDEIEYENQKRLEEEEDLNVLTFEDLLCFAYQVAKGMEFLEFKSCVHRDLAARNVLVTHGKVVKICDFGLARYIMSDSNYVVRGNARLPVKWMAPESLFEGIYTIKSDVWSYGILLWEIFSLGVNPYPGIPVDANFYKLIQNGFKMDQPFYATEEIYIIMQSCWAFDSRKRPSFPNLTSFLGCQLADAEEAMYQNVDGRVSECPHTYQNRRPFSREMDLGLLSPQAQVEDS
How it was run: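 IC50 values come from AlphaScreen proximity signal: phosphorylated biotin-poly(Glu4-Tyr) (30 nM) bridges streptavidin donor and anti-phosphotyrosine PY20 acceptor beads. Enzyme reactions ran at 100 μM ATP for c-KIT versus 10 μM for both FLT3 mutants (ITD, D835Y); beads added in stop buffer, room temperature.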

SMILES	IC50 [1] [µM]	IC50 (FLT3-D835Y) [µM]
COc1ncc(NC(=O)Cc2ccc(-c3cnc4[nH]cc(Cl)c4n3)cc2F)cc1C(F)(F)F [Compound P-0047, 2-[4-(7-chloro-5H-pyrrolo[2,3-b]pyrazin-2-yl)-2-fluoro-phenyl]-N-[6-methoxy-5-(trifluoromethyl)-3-pyridyl]acetamide]	0.0001 to 10	0.0001 to 10
Cn1cc(Nc2ncc(-c3ccc(CC(=O)Nc4cncc(C(C)(F)F)c4)c(F)c3)cn2)cn1 [Compound P-0090, N-[5-(1,1-difluoroethyl)-3-pyridyl]-2-[2-fluoro-4-[2-[(1-methylpyrazol-4-yl)amino]pyrimidin-5-yl]phenyl]acetamide]	0.0001 to 10	0.0001 to 10
O=C(Cc1ccc(-c2cnc(Nc3cnn4ccccc34)nc2)cc1F)Nc1cncc(C(F)(F)F)c1 [Compound P-0058, 2-[2-fluoro-4-[2-(pyrazolo[1,5-a]pyridin-3-ylamino)pyrimidin-5-yl]phenyl]-N-[5-(trifluoromethyl)-3-pyridyl]acetamide]	0.0001 to 10	0.0001 to 10
Cn1cnc(Nc2ncc(-c3cc(F)c(CC(=O)Nc4cncc(C(F)(F)F)c4)cc3F)cn2)c1 [Compound P-0078, 2-(2,5-difluoro-4-(2-((1-methyl-1H-imidazol-4-yl)amino)pyrimidin-5-yl)phenyl)-N-(5-(trifluoromethyl)pyridin-3-yl)acetamide]	0.0001 to 10	0.0001 to 10
COc1cncc(NC(=O)Cc2ccc(-c3cnc(Nc4cnn(C)c4)nc3)cc2F)c1 [Compound P-0086, 2-[2-fluoro-4-[2-[(1-methylpyrazol-4-yl)amino]pyrimidin-5-yl]phenyl]-N-(5-methoxy-3-pyridyl)acetamide]	0.0001 to 10	0.0001 to 10
Cn1cc(Nc2ncc(-c3ccc(CC(=O)Nc4cc(C(F)(F)F)ccn4)c(F)c3)cn2)cn1 [Compound P-0082, 2-[2-fluoro-4-[2-[(1-methylpyrazol-4-yl)amino]pyrimidin-5-yl]phenyl]-N-[4-(trifluoromethyl)-2-pyridyl]acetamide]	0.0001 to 10	0.0001 to 10
Cc1ncc(NC(=O)Cc2ccc(-c3cnc(Nc4cnn(C)c4C)nc3)cc2F)cc1C(F)(F)F [Compound P-0076, 2-[4-[2-[(1,5-dimethylpyrazol-4-yl)amino]pyrimidin-5-yl]-2-fluoro-phenyl]-N-[6-methyl-5-(trifluoromethyl)-3-pyridyl]acetamide]	0.0001 to 10	0.0001 to 10
CCC(=O)c1c[nH]c2ncc(-c3ccc(CC(=O)Nc4cnc(C)c(C(F)(F)F)c4)c(F)c3)cc12 [Compound P-0070, 2-[2-fluoro-4-(3-propanoyl-1H-pyrrolo[2,3-b]pyridin-5-yl)phenyl]-N-[6-methyl-5-(trifluoromethyl)-3-pyridyl]acetamide]	0.0001 to 10	0.0001 to 10
COc1ncc(NC(=O)Cc2ccc(-c3cnc(Nc4cn[nH]c4)nc3)cc2F)cc1C(F)(F)F [Compound P-0026, 2-[2-fluoro-4-[2-(1H-pyrazol-4-ylamino)pyrimidin-5-yl]phenyl]-N-[6-methoxy-5-(trifluoromethyl)-3-pyridyl]acetamide]	0.0001 to 10	0.0001 to 10
O=C(Cc1ccc(-c2cnc3[nH]cc(Cl)c3n2)cc1F)Nc1cncc(C(F)(F)F)c1 [Compound P-0061, 2-[4-(7-chloro-5H-pyrrolo[2,3-b]pyrazin-2-yl)-2-fluoro-phenyl]-N-[5-(trifluoromethyl)-3-pyridyl]acetamide]	0.0001 to 10	0.0001 to 10
CC(=O)c1c[nH]c2ncc(-c3ccc(CC(=O)Nc4cncc(C(F)(F)F)c4)c(F)c3)cc12 [Compound P-0055, 2-[4-(3-acetyl-1H-pyrrolo[2,3-b]pyridin-5-yl)-2-fluoro-phenyl]-N-[5-(trifluoromethyl)-3-pyridyl]acetamide]	0.0001 to 10	0.0001 to 10
Cc1ncc(NC(=O)Cc2ccc(-c3cnc(Nc4cnn5ccccc45)nc3)cc2F)cc1C(F)(F)F [Compound P-0065, 2-(2-fluoro-4-(2-(pyrazolo[1,5-a]pyridin-3-ylamino)pyrimidin-5-yl)phenyl)-N-(6-methyl-5-(trifluoromethyl)pyridin-3-yl)acetamide]	0.0001 to 10	0.0001 to 10
